Assay results: US7534455B2, “Herbal composition PHY906 and its use in chemotherapy” (Yale University, priority 2000, dated 2009)
Where two headings read alike, the source gives them in different places. One block for each molecule: values may come before it.

How the values were obtained:
[1] = test system: PAN02 murine pancreatic carcinoma; experiment: Tumor growth in PAN02 murine pancreatic carcinoma model; type: in vivo, mouse; details: C57/BL6 mice; 150 mg/kg
Experimental: Tumor Cells: The human hepatocellular carcinoma HepG2, human PANC-1 pancreatic cancer and mouse Colon 38 colorectal cancer cell lines were purchased from the American Type Culture Collection (Rockville, Md.). […] Small chunk of mouse PAN02 tumor from NCI was suspended in PBS solution as a total volume of 0.8 ml. The cells were implanted into the left flank of mice. Tumor transplantation from mice to mice was performed when the tumor reached 1500-2000 mm^3. Mouse Tumor Model: Tumor cells (5×10^6 cells in 0.1 ml PBS) were transplanted subcutaneously into the left flank of mice. After 14 days, tumor ranging in size from 300-500 mm^3 was selected for drug studies. The length and width of the each tumor was measured with sliding calipers. The tumor size was estimated according to the following formula: Tumor size (mm^3)=length (mm)×width (mm)^2/2. Antitumor Activity of Chemotherapeutic Agents in the Presence or Absence of PHY906: […] The first day of drug treatment was defined as day 1. […] Chemotherapeutic agents were given either intraperitoneally or orally at the dose and schedule indicated. The tumor size, body weight, and mortality of the mice were monitored daily.

[2] = Pharmacokinetics of gemcitabine (dFdC) and dFdU in plasma of PAN02 bearing BDF-1 mice; type: in vivo; details: for AUC, dFdC + PHY906: PHY906 500 mg/kg 30 min before gemcitabine; for AUC, dFdC alone: gemcitabine 600 mg/kg
Experimental: Plasma Handling: The mouse plasma was separated from the blood by centrifugation at 10,000 g at 4° C. for 10 min.
b) Gemcitabine-containing plasma: The plasma (50 μl) was extracted with 200 μl of acetonitrile (ACN) in the presence of 5 μl of 0.1 mM AZT as an internal standard. After centrifugation, the supernatant was dried by a Speedvac, reconstituted with 100 μl of solution containing 2.5% ACN and 97.5% of 15 mM ammonium acetate (pH 5.0).
The resultant analyte was then analyzed by HPLC with UV absorption and/or radioactivity.
To determine, for a future clinical trial, if PHY906 would change the metabolism of gemcitabine, a pharmacokinetics analysis in mice bearing pancreatic cancer was performed. Mice were divided into three sets of 15: gemcitabine only, gemcitabine plus PHY906, and vehicle control. Each mouse in the set was bled twice at two different time points. Plasma was processed as described in Materials and Methods and analyzed by HPLC with radioactivity confirmation of peak identity and quantitation.

[3] = test system: pancreatic cancer; details: monotherapy; cited from earlier work
[4] = Host toxicity (body weight loss, mortality, blood cell counts) in chemotherapy treated BDF-1 mice bearing Colon 38 tumor; type: in vivo
Experimental: (§1) Anti-Tumor Studies: Murine Colon 38 (1-2×10^6 cells in 0.1 ml PBS) or human HepG2 cells (1-2×10^6 cells in 0.1 ml PBS) were transplanted subcutaneously into BDF1 or NCr athymic nude mice, respectively. The length and width of the tumors were measured daily with sliding calipers. The tumor weight was estimated according to the following formula (Pizzorno G, Wiegand R, Lentz S, et al., Cancer Res. 52:1660-1665 (1992)): Tumor weight (mg)=length (mm)×width (mm)^2/2.
(§2) After 10 to 14 days, mice (five animals/group) with tumor weights ranging from 150-200 mg were selected for drug studies (Guo X, Lerner-Tung M, Chen H X, et al., Biochem Pharmacol 49:1111-1116 (1995)). Mice were sacrificed when the tumor size reached 10% of body weight. PHY906 was administered orally either alone or with anti-cancer chemotherapeutic agents. The effect of PHY906 on antitumor efficacy and the reduction of toxicity by the agents were evaluated. CPT-11 was given intraperitoneally (i.p.) 30 min after PHY906 administration with the selected dose. The regimen of FU/LV combination therapy was given as follows:
The first day of treatment was defined as day 0. PHY906 was given orally twice a day (10 am and 3 pm) for either 4 or 8 days beginning on day 0. For the control group, mice were administrated a vehicle, either PBS for i.p. or H2O for p.o. (oral administration). Animals were monitored for mortality, weight loss, and tumor size daily.
Blood Cell Counts: Blood (20 μl) was taken from mice on days 0, 3, 6, 9 and 12 with micro-capillary tubes. Blood was then be diluted to 200 μl with normal saline (0.85% Sodium Chloride). WBC, RBC and platelets were counted by a BAKER SYSTEM 9100™ […] (Biochem ImmunoSystems Inc., Allentown, Pa. 18103-9562).
PHY906 was evaluated as a modulator of CPT-11 therapy for toxic side effects in mice inoculated with Colon 38 tumor cells. Based on the previous findings (Example 2), a single bolus dose of 400 mg/kg CPT-11 was selected to study the effect of PHY906 on weight-loss associated with toxicity of CPT-11. To evaluate whether PHY906 impairs the antitumor efficacy of CPT-11, mice were implanted subcutaneously with Colon 38 tumor cells. Ten to 14 days after inoculation, mice were treated with CPT-11 (400 mg/kg, i.p.) in the absence or presence of PHY906, which was given orally twice a day at varying doses (125 mg/kg, 250 mg/kg, and 500 mg/kg). PHY906 treatment was continued at the dose indicated for 8 consecutive days.
Mice were divided into four groups with different treatment regimens: Group (A) treatment with vehicle; Group (B) treatment with a single dose of 400 mg/kg CPT-11 by i.p. injection; Group (C) treatment with PHY906 (500 mg/kg/b.i.d.) alone; or Group (D) treatment with a single dose of 400 mg/kg CPT-11 plus 500 mg/kg/b.i.d. PHY906 for 4 or 8 days. The sequence of each treatment regimen appears in Materials and Methods. As depicted in Table 9, 35 of 35 tumor-bearing mice (100%) from Group A and 15 of 15 mice (100%) from Group C survived treatment with either vehicle or PHY906 alone for 4 or 8 days, indicating no or very low toxicity for PHY906.

[5] = test system: Colon 38 tumor; experiment: Tumor growth in BDF-1 mice bearing Colon 38 tumor; type: in vivo, mouse; details: CPT-11 treated mice; formulation 1 g/kg, bid, 8 days
Experimental: as §1, §2
(A) treatment with FU/LV alone: first dose of LV (50 mg/kg, i.p.), one hour later the second dose of LV (50 mg/kg; i.p.), then immediately given FU (100 mg/kg, i.p.) […]
The first day of treatment was defined as day 0. […] Animals were monitored for mortality, weight loss, and tumor size daily.

Cmax ([2]; BDF-1, mouse, plasma, oral, 600 mg/kg, Radioactivity detection, read-out: Cmax, dFdC + PHY906): 400 µg/mL | Cmax ([2]; BDF-1, mouse, plasma, oral, 600 mg/kg, Radioactivity detection, read-out: Cmax, dFdC alone): 360 µg/mL | Tmax ([2]; BDF-1, mouse, plasma, oral, 600 mg/kg, Radioactivity detection, read-out: Tmax, dFdC alone (converted)): 15 min | half-life ([2]; BDF-1, mouse, plasma, oral, 600 mg/kg, Radioactivity detection, read-out: T½, dFdC + PHY906): 34.2 min | half-life ([2]; BDF-1, mouse, plasma, oral, 600 mg/kg, Radioactivity detection, read-out: T½, dFdC alone): 26.5 min | Cmax ([2]; BDF-1, mouse, plasma, oral, 600 mg/kg, UV detection, read-out: Cmax, dFdC alone): 230 µg/mL | half-life ([2]; BDF-1, mouse, plasma, oral, 600 mg/kg, UV detection, read-out: T½, dFdC alone): 27 min | Tmax, dFdC + PHY906 ([2]; Radioactivity detection): 15 min | AUC, dFdC + PHY906 ([2]; Radioactivity detection): 25.0 mg·min/mL | AUC, dFdC alone ([2]; Radioactivity detection): 15.6 mg·min/mL | Cmax, dFdC + PHY906 ([2]; UV detection): 250 µg/mL | Tmax, dFdC + PHY906 ([2]; UV detection): 15 min | Tmax, dFdC alone ([2]; UV detection): 15 min | T½, dFdC + PHY906 ([2]; UV detection): 31.0 min | AUC, dFdC + PHY906 ([2]; UV detection): 15.4 mg·min/mL | AUC, dFdC alone ([2]; UV detection): 10.8 mg·min/mL | Levels in circulation in the presence or absence of PHY906 ([2]; plasma): not a dramatic difference
Compound: Nc1ccn([C@@H]2O[C@H](CO)[C@@H](O)C2(F)F)c(=O)n1 [dFdC, 2′-deoxy-2′,2′-difluoro-cytidine]
Antitumor activity, gemcitabine alone [1]: did not have antitumor activity | Overall survival time [3]: 4-6 months | Response rate in patients [3]: 6-11%

Compound: CN(C)C(=O)C(CCN1CCC(O)(c2ccc(Cl)cc2)CC1)(c1ccccc1)c1ccccc1 [Loperamide]
Protecting against body weight loss or enhancing the antitumor effects of CPT-11 ([4]; CPT-11 treated BDF-1 mice bearing Colon 38): completely ineffective | Protection from Body Weight Loss ([4]; CPT-11 treated mice, formulation 1 g/kg (dry weight incl. excipient), bid, 8 days): No Change | Antitumor Effect [5]: No Change
